The values below come from PMC11180795 (Frontiers in Pharmacology, 2024).

A short description of data set [1]: Cytotoxicity MTT assay on RAW 264.7 cells. It counts as cell-based, Murine. The conditions noted are these: mouse, RAW 264.7 macrophage cells, 48 h incubation, read-out: IC50, cytotoxic effect on RAW264.7 cells. As for the experimental part:
Murine macrophage RAW 264.7 cell line obtained from the American Type Culture Collection (Rockville, MD, United States) was maintained in DMEM supplemented with 10% fetal calf serum (FCS) and 1% penicillin/streptomycin/fungizone (PSF) under standard cell culture conditions at 37°C and 5% CO2 in a humidified environment.
The cytotoxic effect of compounds on RAW 264.7 cells was assessed using the 3-(4, 5-dimethylthiazol-2-yl)-2, 5-diphenyl tetrazolium bromide (MTT) assay as established by Mosmann ([Mosmann, 1983]) with slight modifications. Briefly, cells were seeded at a density of 1 × 10^5 cells/mL (100 µL) in 96-well microtitre plates and incubated at 37°C and 5% CO2 in a humidified environment. After 24 h incubation, 100 µL of compounds (at concentration ranged from to 250 μM–1.95 µM) were added to the wells containing cells and further incubated for 48 h in a CO2 incubator. A suitable control (untreated cells) was included and doxorubicin was used as a positive reference. Thereafter, the medium in each well was aspirated from the cells, which were then washed with PBS, and finally fresh medium (200 µL) was added to each well. Then, 30 µL of MTT (5 mg/mL in PBS) was added to each well and the plates were incubated at 37°C for 4 h. The medium was aspirated from the wells and DMSO was added to solubilize the formed formazan crystals. The absorbance was read at 570 nm (SpectraMax 190, Molecular devices). The percentage of cell inhibition was calculated with reference to the control (untreated cells taken as 100% viability). Then, the IC50 values of plant compounds showing more than 50% cell growth inhibition were calculated by plotting the percentage inhibition against the concentration.

Data set [2] relates to RAW 264.7 macrophage cells. Also on record: method as in Sukandar et al., 2023. The conditions noted are these: final concentration of 100 μM, ref Sukandar et al., 2023; cited from earlier work.
Another data set concerns NO production. More on the design: method as in Liu et al., 2016. To be noted: ref Liu et al., 2016; read-out: IC50, inhibition of NO production; cited from earlier work.

pIC50: −log10 of the molar value.

As a reminder, the melting point is the temperature of the solid-liquid transition. What is called IC50 is the concentration at which inhibition is half-maximal. On to `CC(C)=CCCC1(C)C=Cc2c(cc3oc4c(O)ccc(O)c4c(=O)c3c2O)O1` (stereo not shown) [Compound 3, Smeathxanthone B], for which the melting point is 187 to 189 °C. The IC50 at 48 h in data set [1] was above 100 µM. Turning to `COc1cccc2c1C(=O)c1c(O)c3c(c(O)c1C2=O)C[C@@](O)(C(=O)CO)C[C@@H]3O[C@H]1C[C@H](N)[C@H](O)[C@H](C)O1` [Doxorubicin, doxorubicin, reference compound], the IC50 at 48 h in data set [1] is 4.63 µM.

Regarding `CC12CCC3C1C(c1c(cc(O)c(C(=O)c4ccccc4)c1O)O2)C3(C)C` (stereo not shown) [clusiacyclol A], in data set [2], the NO inhibition result is “over 85%” and the “cytotoxicity (in words)” value is reported as “without obvious cytotoxicity”.

What is called pIC50 is the IC50 on a negative log10 scale, so that one unit is a factor of ten. For the molecule garcinoxanthone B, in the data set on NO production, the negative logarithm of the IC50 (pIC50) is 4.95. garcinoxanthone C: the pIC50 with NO production is 4.74.
